This data set is described as follows: physchem. The format is physicochemical. Particulars: solid state. As to the method: (Z)-Stannyl olefin 4 (25 mg, 41 μmol) was added to 1 mL of chloroform and iodine (10.9 mg, […]) was added with stirring. Rapid decoloration took place and an additional amount of iodine (1 mg) was added which imparted a pink color. Several drops of methanolic potassium fluoride was added which precipitated a tin complex. To the slurry was added 0.5 mL of saturated […] and the organic phase was separated, dried over sodium sulfate and evaporated to give an oil. This material was chromatographed using 2 percent methanol in chloroform on a 1 cm×10 cm flash gel column to give (Z)-iodo olefin 5 (15.3 mg) in 84 percent yield as a white solid.

What is called share remaining is what is left of the initial amount, in per cent. A higher share remaining goes with less turnover.

The structures appear in SMILES notation.

`CC[C@H]1C[C@@]2(C)[C@@H](CC[C@@]2(O)/C=C\I)[C@@H]2CCc3cc(O)ccc3[C@@H]12` [(Z)-iodo olefin 5, 11β-Ethyl-17α-(Z)-(iodovinyl)estra-3,17β-diol] yielded a fraction remaining at 168 h of 74%. Also, under “a week at 25° C., HPLC 254 nm”, the protodestannylation in product worked out at 3.4 area percent and the “suspect (E)-iodo” value is 10.9 area percent.

The values are drawn from patent US5427766A, “Radiolabeled steroids for use in radiochemical-guided surgery” (priority 1993, dated 1995).
